Data reported in patent US9884862B2, “Pyridopyrimidinedione derivatives” (Novartis AG, priority 2014, dated 2018).

Tests used:
[1] = test system: alpha-L-Iduronidase W402X in Hurler patient derived fibroblast cells; test: Hurler patient derived fibroblast cell cultures, restored alpha-L-iduronidase activity (W402X readthrough); format: cell-based, human; conditions: Homo sapiens, Fibroblast, 192 h, 8 days incubation, highest concentration 20 uM; for Emax: 14 mM paromomycin = 100% control, read-out: Amax; for AC50: 8 point dilutions
Description: Activity of compounds of the present invention was examined in patient derived fibroblast cells. The genotyped cells were derived from the Coriell Institute (# GM00798) and contain an in frame homozygous TGG to TAG change at nucleotide 1293 of exon 9 which results in a W402X mutation. The W402X mutation is one of the most common Hurler syndromes causing loss of function mutation. Between 60-70% of genotyped patients contain either the Q70X and/or the W402X in mutation and are classified as severe MPSI patients. This TAG stop codon triplet is permissive to aminoglycoside mediated translational readthrough which served as activity control for compound testing. Readthrough of W402X restores alpha-L-Iduronidase activity which results in removal of lysosomal accumulated Glycosaminoglycan's. Iduronidase expression could neither be detected by Taqman PCR© nor by enzyme activity or ELISA methods without compound stimulation. Compounds were tested in concentration response mode. Therefore 5000 patient cells/40 ul/well in 384 well plates were used. Compound dilutions were derived from freshly prepared 10 mM compound stock solutions. Highest concentration was 20 uM and subsequently diluted 1: 3.16 (8 point dilutions, n=4). Final DMSO concentration was below 0.5% and tested to be without effect on cell viability, growth and readthrough. Cells were incubated for 8 days with one cell media and compound exchange at day 3. Thereafter cell media was removed and cells were lysed (0.4 M Sodiumformate, 0.1% NaN3, 0.9% NaCl, 0.2% Triton, pH 3.5). Restored alpha-L-iduronidase activity in cell lysates was measured with the fluorescent 4-MU iduronide substrate (5 ul of 0.4 mM 4 Methylumbelliferyl alpha-L-iduronide/well) after 48 h incubation. Paromomycin was used as reference control (14 mM=100% control).

[2] = test system: CFTR-Y122X; test: CFTR-Y122X assay (dual reporter isogenic Hek293 cell lines, Renilla luminescence readthrough); format: cell-based; conditions: Homo sapiens, HEK293, 24 h, nonsense mutation suppression, 24 h incubation, tested up to 100 μM; for Emax: 100% = 14 mM paromomycin, read-out: Amax
Description: Activity of compounds of the present invention was examined in recombinant, dual reporter isogenic Hek293 cell lines (“CFTR-Y122X assay”). The engineered reporter constructs contained the 18 bp sequence stretch corresponding to a common Y122X PTC mutation in CFTR class I mutant patients (see Sermet-Gaudelus, BMC Medicine, 2007, 5(5)). Instead of a tyrosine (Y) in position 122 of the CFTR protein a TGA stop codon interrupts the open reading frame (Y122X) of the corresponding mRNA. This TGA stop codon triplet (followed by the pyrimidine base cytosine) is permissive to aminoglycoside mediated translational readthrough which served as positive control for high throughput screening. A corresponding TAA stop codon variant and a wildtype non mutated construct was used for confirmation and counter screening. The CFTR sequence was sandwiched between an eGFP reporter, and a triple myc tag sequence fused to a full length Renilla reporter. All sequences, including an intron containing one positioned pre-eGFP (b-globin intron) were cloned in frame. The corresponding expression constructs were stably expressed in the isogenic HEK-R4 cell host (Invitrogen Incorp.) and selected by blasticidin resistance. The isogenic integration of the construct minimizes gene dose effects and improves assay reproducibility. Stably integrated single cell derived clones were selected and characterized for aminoglycoside mediated readthrough. […] Readthrough of Y122X accumulates an intracellular localized fusion protein approximately 65.5 kDa in size as controlled by western blot analysis and immunofluorescence using an anti-renilla antibody. The eGFP reporter pre-PTC mutation serves as visual control for genetic stability of the screening clones and minimizes protein degradation of small fusion protein amounts. In the assay, compound concentration was 10 μM. In miniaturized 1536 well format 2000 cells were dispensed in 4 μl/well and incubated for 24 h at 37° C., 5% CO2. 40 nl compounds were placed on the cells with control wells containing 1 ul Paramomycin and 14.4 mM final concentration. Compounds were incubated for 24 h. Renilla Glo substrate (2.5 ul) was added and plates were centrifuged and processed for luminescence measurement using various readers. Activity calculation was done using the equation: A1(%)=100*(S−NC)/(AC−NC) where AC, NC and S correspond to active controls (injection of Stimulation buffer=100% stimulation), neutral controls (buffer injection which Iloprost EC10) and screening samples (S). NC corresponds to 0% activity whereas AC is 100% activity (14 mM paromomycin). False positive artifacts were removed in confirmation and validation screening using the same assay format followed by counterscreening using the respective wildtype construct (w/o PTC mutation) cell model. Compounds were tested up to 100 μM compound concentration.

Row | Compound | Emax [1] | AC50 [1] | Emax [2] | AC50 [2]
1 | Cn1c2nc(C3CCC3)n(-c3ccccc3)c(=O)c2c(=O)c2ccsc21 [Example 2.10, 2-cyclobutyl-9-methyl-3-phenylthieno[3′,2′:5,6]pyrido[2,3-d]pyrimidine-4,5(3H,9H)-dione] | 167% | 5.5 µM | 393% | 2 µM
2 | Cn1c2ccsc2c(=O)c2c(=O)n(-c3ccccc3)c(C3CCC3)nc21 [Example 2.11, 2-cyclobutyl-9-methyl-3-phenylthieno[2′,3′:5,6]pyrido[2,3-d]pyrimidine-4,5(3H,9H)-dione] | 152% | 4.5 µM | 157% | 2 µM
3 | Cc1cc2c(s1)c(=O)c1c(=O)n(-c3ccccc3)c(C3CCC3)nc1n2C [Example 2.12, 2-cyclobutyl-7,9-dimethyl-3-phenylthieno[2′,3′:5,6]pyrido[2,3-d]pyrimidine-4,5(3H,9H)-dione] | 138% | 9 µM | 133% | 3 µM
4 | CCc1cc2c(=O)c3c(=O)n(-c4ccccc4)c(C4CCC4)nc3n(C)c2s1 [Example 2.13, 2-cyclobutyl-7-ethyl-9-methyl-3-phenylthieno[3′,2′:5,6]pyrido[2,3-d]pyrimidine-4,5(3H,9H)-dione] | 66% | 16 µM | 118% | 6.1 µM
5 | Cc1csc2c1c(=O)c1c(=O)n(-c3ccccc3)c(C3CCC3)nc1n2C [Example 2.14, 2-cyclobutyl-6,9-dimethyl-3-phenylthieno[3′,2′:5,6]pyrido[2,3-d]pyrimidine-4,5(3H,9H)-dione] | 10% | – | 114% | 13 µM
6 | Cc1csc2c(=O)c3c(=O)n(-c4ccccc4)c(C4CCC4)nc3n(C)c12 [Example 2.15, 2-cyclobutyl-8,9-dimethyl-3-phenylthieno[2′,3′:5,6]pyrido[2,3-d]pyrimidine-4,5(3H,9H)-dione] | 115% | 5.7 µM | 188% | 2.6 µM
7 | Cc1scc2c(=O)c3c(=O)n(-c4ccccc4)c(C4CCC4)nc3n(C)c12 [Example 2.16, 2-cyclobutyl-8,9-dimethyl-3-phenylthieno[3′,4′:5,6]pyrido[2,3-d]pyrimidine-4,5(3H,9H)-dione] | 150% | 12.3 µM | 199% | 4.6 µM
8 | Cn1c2cc(Cl)sc2c(=O)c2c(=O)n(-c3ccccc3)c(C3CCC3)nc21 [Example 2.17, 7-chloro-2-cyclobutyl-9-methyl-3-phenylthieno[2′,3′:5,6]pyrido[2,3-d]pyrimidine-4,5(3H,9H)-dione] | 128% | 10 µM | 151% | 4 µM
9 | Cn1c2nc(C3CCC3)n(-c3ccccc3)c(=O)c2c(=O)c2cc(Cl)sc21 [Example 2.18, 7-chloro-2-cyclobutyl-9-methyl-3-phenylthieno[3′,2′:5,6]pyrido[2,3-d]pyrimidine-4,5(3H,9H)-dione] | 200% | 11 µM | 154% | 3.3 µM
10 | CC(C)c1nc2c(c(=O)c3cc(Cl)sc3n2C)c(=O)n1-c1ccccc1 [Example 2.19] | 16% | – | 104% | 15 µM
11 | CC(C)c1nc2c(c(=O)c3sc(Cl)cc3n2C)c(=O)n1-c1ccccc1 [Example 2.20, 7-chloro-2-isopropyl-9-methyl-3-phenylthieno[2′,3′:5,6]pyrido[2,3-d]pyrimidine-4,5(3H,9H)-dione] | 7% | – | 70% | 19 µM
12 | Cc1csc2c(=O)c3c(=O)n(-c4ccccc4)c(C(C)C)nc3[nH]c12 [Example 2.21, 2-isopropyl-8-methyl-3-phenylthieno[2′,3′:5,6]pyrido[2,3-d]pyrimidine-4,5(3H,9H)-dione] | 25% | – | 180% | 14 µM
13 | Cc1csc2c(=O)c3c(=O)n(-c4ccccc4)c(C(C)C)nc3n(C)c12 [Example 2.22, 2-isopropyl-8,9-dimethyl-3-phenylthieno[2′3′:5,6]pyrido[2,3-d]pyrimidine-4,5(3H,9H)-dione] | 8% | – | 166% | 16 µM
14 | CC(C)c1nc2[nH]c3c(c(=O)c2c(=O)n1-c1ccccc1)CCCCC3 [Example 3.1, 2-isopropyl-3-phenyl-7,8,9,10-tetrahydro-3H-cyclohepta[5,6]pyrido[2,3-d]pyrimidine-4,5(6H,11H)-dione] | 9% | 1.4 µM | 190% | 13 µM
15 | CC(C)c1nc2c(c(=O)c3c(n2C)CCCCC3)c(=O)n1-c1ccccc1 [Example 3.2, 2-isopropyl-11-methyl-3-phenyl-7,8,9,10-tetrahydro-3H-cyclohepta[5,6]pyrido[2,3-d]pyrimidine-4,5(6H,11H)-dione] | 83% | 12 µM | 213% | 11 µM
16 | CC(C)c1nc2[nH]c3c(c(=O)c2c(=O)n1-c1ccccc1)CCC3 [Example 3.3, 2-isopropyl-3-phenyl-7,8-dihydro-3H-cyclopenta[5,6]pyrido[2,3-d]pyrimidine-4,5(6H,9H)-dione] | 8% | – | 112% | 21 µM
17 | CC(C)c1nc2c(c(=O)c3c(n2C)CCC3)c(=O)n1-c1ccccc1 [Example 3.4, 2-isopropyl-9-methyl-3-phenyl-7,8-dihydro-3H-cyclopenta[5,6]pyrido[2,3-d]pyrimidine-4,5(6H,9H)-dione] | 8% | 1.4 µM | 40% | 18 µM
18 | Cc1[nH]c2nc(C(C)C)n(-c3ccccc3)c(=O)c2c(=O)c1C [Example 3.5, 2-isopropyl-6,7-dimethyl-3-phenylpyrido[2,3-d]pyrimidine-4,5(3H,8H)-dione] | 9% | – | 114% | 17 µM
19 | CC1CCc2c([nH]c3nc(C(C)C)n(-c4ccccc4)c(=O)c3c2=O)C1 (stereo not drawn) [Example 3.6, 2-isopropyl-8-methyl-3-phenyl-6,7,8,9-tetrahydropyrimido[4,5-b]quinoline-4,5(3H,10H)-dione] | 10% | – | 46% | 27 µM
20 | Cc1c(C)n(C)c2nc(C(C)C)n(-c3ccccc3)c(=O)c2c1=O [Example 3.7, 2-isopropyl-6,7,8-trimethyl-3-phenylpyrido[2,3-d]pyrimidine-4,5(3H,8H)-dione] | 14% | – | 61% | 22 µM
21 | CC1CCc2[nH]c3nc(C(C)C)n(-c4ccccc4)c(=O)c3c(=O)c2C1 (stereo not drawn) [Example 3.8, 2-isopropyl-7-methyl-3-phenyl-6,7,8,9-tetrahydropyrimido[4,5-b]quinoline-4,5(3H,10H)-dione] | 12% | 1.3 µM | 219% | 12 µM
22 | CC1CCc2c(n(C)c3nc(C(C)C)n(-c4ccccc4)c(=O)c3c2=O)C1 (stereo not drawn) [Example 3.9, 2-isopropyl-8,10-dimethyl-3-phenyl-6,7,8,9-tetrahydropyrimido[4,5-b]quinoline-4,5(3H,10H)-dione] | 15% | – | 11% | 11 µM
